From paper PMC7659979, “Discovery and Evaluation of Enantiopure 9H-pyrimido[4,5-b]indoles as Nanomolar GSK-3β Inhibitors with Improved Metabolic Stability” (International Journal of Molecular Sciences, 2020)

Assay: Microsomal stability assay (pooled male and female HLM, LC-MS)
Format: in vitro ADME, human
Details: HLM, incubation time of 120 min
Experimental: To this end, the compounds were incubated with pooled male and female HLM for 120 min, and the compound degradation as well as the formation of metabolites was monitored by liquid chromatography-mass spectrometry (LC-MS) analysis.
The inhibitory activity of the final compounds on GSK-3β was determined by the Promega ADP-Glo™ Kinase assay (Promega Corporation, Madison, WI 53711, USA), which was performed in white, non-treated 384-well plates (Corning). The experiments were carried out as quadruplicates using a concentration of 0.58 ng/µL of recombinant human GSK-3β, 0.2 µg/µL GSK-3 substrate G50-58 […]
(sequence: […](pS)EDEEE) and 25 µM ATP in the presence of serial dilutions of the final compounds. In addition, two control experiments with uninhibited kinase and two blank experiments with ATP/substrate solution were performed.
In detail, the kinase was pre-incubated with the final compounds for 10 min at rt. Then substrate/ATP was added to start the reaction, which was run for 1 h at rt. The next steps consisted of addition of ADP-Glo™ reagent (5 µL, then 1 h incubation) and Kinase detection reagent (10 µL, then 30 min incubation). Finally, the luminescence was measured on a FilterMax F5 microplate reader (Molecular Devices) (integration time 500 ms). GraphPad Prism v. 7.03. was used to normalize the raw data to the values of the control and blank experiments and generate absolute IC 50 values.
2. Interaction Frequencies of (R)-2 and (R)-28 in the 1 µs Molecular Dynamics Simulations
Figure S1. Observed interactions of (R)-2 (a) and (R)-28 (b) in the MD simulations. Both ligands […]
mediates water-bridged interactions to Asp200 or Ser66. Interactions with >10% frequency are shown.
3. Microsomal Stability Assay
Pooled male and female human liver microsomes (HLMs) (Lot: SLBQ7487V) were purchased from Merck (Schnelldorf, Germany). […]
The metabolite formation was analyzed with an Alliance 2695 Separations Module (Waters […]
The absorbance was read at 570 nm using a Spectramax i5 microplate reader. Results were expressed as percentage of control.

Structure (SMILES): CCC(=O)N1CCC[C@@H](N(C)c2ncnc3[nH]c4cc(Br)ccc4c23)C1 [Compound (R)-28, (R)-1-(3-((7-bromo-9H-pyrimido[4,5-b]indol-4-yl)(methyl)amino)piperidin-1-yl)propan-1-one]
- unchanged inhibitor detected after incubation: ~70%
